Laboratory results as given in PubChem BioAssay (NCI).
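Compound exposure: 48 hours, 5 concentrations, 96-well plates. The concentration for full growth arrest is given as TGI.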

Experiments:
Assay in all cases: growth of human tumour cells (NCI), 48 h
UACC-62 melanoma = tested on: UACC-62 melanoma
RPMI-8226 leukemia = tested on: RPMI-8226 leukemia
A498 renal = tested on: A498 renal
A549 NSCLC = tested on: A549 NSCLC
UACC-257 melanoma = tested on: UACC-257 melanoma
HCT-15 colon = tested on: HCT-15 colon
PC-3 prostate = tested on: PC-3 prostate
COLO 205 colon = tested on: COLO 205 colon
K-562 leukemia = tested on: K-562 leukemia
786-0 renal = tested on: 786-0 renal
OVCAR-8 ovarian = tested on: OVCAR-8 ovarian
SNB-19 CNS = tested on: SNB-19 CNS
SF-295 CNS = tested on: SF-295 CNS
CAKI-1 renal = tested on: CAKI-1 renal
SK-OV-3 ovarian = tested on: SK-OV-3 ovarian
SK-MEL-5 melanoma = tested on: SK-MEL-5 melanoma
SNB-75 CNS = tested on: SNB-75 CNS
SR leukemia = tested on: SR leukemia
HCT-116 colon = tested on: HCT-116 colon
IGROV1 ovarian = tested on: IGROV1 ovarian
SN12C renal = tested on: SN12C renal
RXF 393 renal = tested on: RXF 393 renal
U251 CNS = tested on: U251 CNS
SW-620 colon = tested on: SW-620 colon
OVCAR-4 ovarian = tested on: OVCAR-4 ovarian
SK-MEL-2 melanoma = tested on: SK-MEL-2 melanoma
NCI-H522 lung = tested on: NCI-H522 lung
ACHN renal = tested on: ACHN renal
LOX IMVI melanoma = tested on: LOX IMVI melanoma
HCC-2998 colon = tested on: HCC-2998 colon
NCI/ADR-RES ovarian = tested on: NCI/ADR-RES ovarian
MDA-MB-435 = tested on: MDA-MB-435
MDA-N = tested on: MDA-N
MCF7 breast = tested on: MCF7 breast
CCRF-CEM leukemia = tested on: CCRF-CEM leukemia
NCI-H23 lung = tested on: NCI-H23 lung
NCI-H226 lung = tested on: NCI-H226 lung
SF-268 CNS = tested on: SF-268 CNS
MALME-3M melanoma = tested on: MALME-3M melanoma
SK-MEL-28 melanoma = tested on: SK-MEL-28 melanoma
NCI-H460 lung = tested on: NCI-H460 lung
UO-31 renal = tested on: UO-31 renal
MDA-MB-231 breast = tested on: MDA-MB-231 breast
BT-549 breast = tested on: BT-549 breast
DU-145 prostate = tested on: DU-145 prostate
HS 578T breast = tested on: HS 578T breast
HT29 colon = tested on: HT29 colon
HOP-92 NSCLC = tested on: HOP-92 NSCLC
M14 melanoma = tested on: M14 melanoma
HOP-62 NSCLC = tested on: HOP-62 NSCLC
HL-60(TB) leukemia = tested on: HL-60(TB) leukemia
TK-10 renal = tested on: TK-10 renal
OVCAR-5 ovarian = tested on: OVCAR-5 ovarian
OVCAR-3 ovarian = tested on: OVCAR-3 ovarian
EKVX NSCLC = tested on: EKVX NSCLC
KM12 colon = tested on: KM12 colon
T-47D breast = tested on: T-47D breast
SF-539 CNS = tested on: SF-539 CNS
MOLT-4 leukemia = tested on: MOLT-4 leukemia

Work on `Nc1nc(=S)n(-c2ccc(Cl)cc2)c2nc3ccccc3cc12` yielded a TGI (UACC-62 melanoma) greater than 100 µM, a TGI (RPMI-8226 leukemia) greater than 100 µM and a TGI (A498 renal) greater than 100 µM. The TGI (A549 NSCLC) was greater than 100 µM, the TGI (UACC-257 melanoma) was greater than 100 µM and the TGI (HCT-15 colon) was greater than 100 µM. For the same molecule, the TGI (PC-3 prostate) was greater than 100 µM, the TGI (COLO 205 colon) was greater than 100 µM and the TGI (K-562 leukemia) was greater than 100 µM. The TGI (786-0 renal) was greater than 100 µM, the TGI (OVCAR-8 ovarian) was greater than 100 µM and the TGI (SNB-19 CNS) was greater than 100 µM. The TGI (SF-295 CNS) was greater than 100 µM, the TGI (CAKI-1 renal) was greater than 100 µM and the TGI (SK-OV-3 ovarian) was greater than 100 µM. It also gave a TGI (SK-MEL-5 melanoma) greater than 100 µM, a TGI (SNB-75 CNS) of 97 µM and a TGI (SR leukemia) greater than 100 µM. It also gave a TGI (HCT-116 colon) greater than 100 µM, a TGI (IGROV1 ovarian) greater than 100 µM and a TGI (SN12C renal) greater than 100 µM. For the same molecule, the TGI (RXF 393 renal) was greater than 100 µM, the TGI (U251 CNS) was greater than 100 µM and the TGI (SW-620 colon) was greater than 100 µM. For the same molecule, the TGI (OVCAR-4 ovarian) was greater than 100 µM, the TGI (SK-MEL-2 melanoma) was greater than 100 µM and the TGI (NCI-H522 lung) was greater than 100 µM. For the same molecule, the TGI (ACHN renal) was greater than 100 µM, the TGI (LOX IMVI melanoma) was greater than 100 µM and the TGI (HCC-2998 colon) was greater than 100 µM. The TGI (NCI/ADR-RES ovarian) was greater than 100 µM, the TGI (MDA-MB-435) was greater than 100 µM and the TGI (MDA-N) was greater than 100 µM. For the same molecule, the TGI (MCF7 breast) was greater than 100 µM, the TGI (CCRF-CEM leukemia) was greater than 100 µM and the TGI (NCI-H23 lung) was greater than 100 µM. For the same molecule, the TGI (NCI-H226 lung) was greater than 100 µM, the TGI (SF-268 CNS) was greater than 100 µM and the TGI (MALME-3M melanoma) was greater than 100 µM. For the same molecule, the TGI (SK-MEL-28 melanoma) was greater than 100 µM, the TGI (NCI-H460 lung) was greater than 100 µM and the TGI (UO-31 renal) was greater than 100 µM. For the same molecule, the TGI (MDA-MB-231 breast) was greater than 100 µM, the TGI (BT-549 breast) was 67.1 µM and the TGI (DU-145 prostate) was greater than 100 µM. It also gave a TGI (HS 578T breast) greater than 100 µM, a TGI (HT29 colon) greater than 100 µM and a TGI (HOP-92 NSCLC) of 83.7 µM. The TGI (M14 melanoma) was greater than 100 µM, the TGI (HOP-62 NSCLC) was greater than 100 µM and the TGI (HL-60(TB) leukemia) was greater than 100 µM. The TGI (TK-10 renal) was 98.3 µM, the TGI (OVCAR-5 ovarian) was greater than 100 µM and the TGI (OVCAR-3 ovarian) was greater than 100 µM. For the same molecule, the TGI (EKVX NSCLC) was greater than 100 µM, the TGI (KM12 colon) was greater than 100 µM and the TGI (T-47D breast) was greater than 100 µM.

Work on `Cc1nnc(Sc2nc(C#N)c(C#N)nc2Sc2nnc(C)s2)s1` yielded a TGI (SF-539 CNS) greater than 60.1 µM, a TGI (UACC-62 melanoma) of 34.9 µM and a TGI (A498 renal) of 53.3 µM. For the same molecule, the TGI (A549 NSCLC) was 56.2 µM, the TGI (UACC-257 melanoma) was 62 µM and the TGI (HCT-15 colon) was 7.42 µM. It also gave a TGI (PC-3 prostate) of 30.7 µM, a TGI (COLO 205 colon) greater than 53.3 µM and a TGI (K-562 leukemia) of 12.6 µM. It also gave a TGI (786-0 renal) of 28.6 µM, a TGI (OVCAR-8 ovarian) of 8.34 µM and a TGI (SNB-19 CNS) of 54.6 µM. It also gave a TGI (SF-295 CNS) of 73.8 µM, a TGI (SK-OV-3 ovarian) of 34.2 µM and a TGI (SK-MEL-5 melanoma) of 46.2 µM. It also gave a TGI (SNB-75 CNS) greater than 82.3 µM, a TGI (SR leukemia) greater than 26.4 µM and a TGI (HCT-116 colon) greater than 64.3 µM. It also gave a TGI (IGROV1 ovarian) of 21.3 µM, a TGI (SN12C renal) of 26.4 µM and a TGI (RXF 393 renal) of 6 µM. The TGI (U251 CNS) was 47.5 µM, the TGI (OVCAR-4 ovarian) was greater than 80.1 µM and the TGI (SK-MEL-2 melanoma) was 44.7 µM. For the same molecule, the TGI (ACHN renal) was 8.08 µM, the TGI (LOX IMVI melanoma) was 9.18 µM and the TGI (HCC-2998 colon) was 51.8 µM. It also gave a TGI (NCI/ADR-RES ovarian) of 51 µM, a TGI (MDA-MB-435) greater than 84.7 µM and a TGI (MOLT-4 leukemia) of 5.47 µM. The TGI (MDA-N) was 49.7 µM, the TGI (MCF7 breast) was 25.3 µM and the TGI (CCRF-CEM leukemia) was 5.15 µM. It also gave a TGI (NCI-H23 lung) of 49.8 µM, a TGI (NCI-H226 lung) of 64.1 µM and a TGI (SF-268 CNS) of 73.2 µM. The TGI (MALME-3M melanoma) was 4.48 µM, the TGI (SK-MEL-28 melanoma) was 47 µM and the TGI (NCI-H460 lung) was greater than 76.1 µM. The TGI (UO-31 renal) was 23.9 µM, the TGI (MDA-MB-231 breast) was 37.9 µM and the TGI (BT-549 breast) was 27.7 µM. The TGI (DU-145 prostate) was 36.6 µM, the TGI (HS 578T breast) was 99.4 µM and the TGI (HT29 colon) was greater than 23.8 µM. It also gave a TGI (HOP-92 NSCLC) of 7.65 µM, a TGI (M14 melanoma) of 62.9 µM and a TGI (HOP-62 NSCLC) greater than 74.3 µM. For the same molecule, the TGI (HL-60(TB) leukemia) was 8.83 µM, the TGI (TK-10 renal) was 41.4 µM and the TGI (OVCAR-5 ovarian) was 46.5 µM. The TGI (OVCAR-3 ovarian) was 25.3 µM, the TGI (EKVX NSCLC) was greater than 73.6 µM and the TGI (KM12 colon) was greater than 72 µM. The TGI (T-47D breast) was 12.9 µM.

For `O=C(O)CCC(C(=O)O)N1C(=O)C2C3CCC(C3)C2C1=O` (configuration not stated), the TGI (SF-539 CNS) was greater than 100 µM, the TGI (UACC-62 melanoma) was greater than 100 µM and the TGI (RPMI-8226 leukemia) was greater than 100 µM. It also gave a TGI (A498 renal) greater than 100 µM, a TGI (A549 NSCLC) greater than 100 µM and a TGI (UACC-257 melanoma) greater than 100 µM. The TGI (HCT-15 colon) was greater than 100 µM, the TGI (PC-3 prostate) was greater than 100 µM and the TGI (COLO 205 colon) was greater than 100 µM. It also gave a TGI (K-562 leukemia) greater than 100 µM, a TGI (786-0 renal) greater than 100 µM and a TGI (OVCAR-8 ovarian) greater than 100 µM. It also gave a TGI (SNB-19 CNS) greater than 100 µM, a TGI (SF-295 CNS) greater than 100 µM and a TGI (CAKI-1 renal) greater than 100 µM. For the same molecule, the TGI (SK-OV-3 ovarian) was greater than 100 µM, the TGI (SK-MEL-5 melanoma) was greater than 100 µM and the TGI (SNB-75 CNS) was greater than 100 µM. The TGI (SR leukemia) was greater than 100 µM, the TGI (HCT-116 colon) was greater than 100 µM and the TGI (IGROV1 ovarian) was greater than 100 µM. For the same molecule, the TGI (SN12C renal) was greater than 100 µM, the TGI (RXF 393 renal) was greater than 100 µM and the TGI (U251 CNS) was greater than 100 µM. For the same molecule, the TGI (SW-620 colon) was greater than 100 µM, the TGI (OVCAR-4 ovarian) was greater than 100 µM and the TGI (SK-MEL-2 melanoma) was greater than 100 µM. For the same molecule, the TGI (NCI-H522 lung) was greater than 100 µM, the TGI (ACHN renal) was greater than 100 µM and the TGI (LOX IMVI melanoma) was greater than 100 µM. It also gave a TGI (NCI/ADR-RES ovarian) greater than 100 µM, a TGI (MDA-MB-435) greater than 100 µM and a TGI (MOLT-4 leukemia) greater than 100 µM. The TGI (MDA-N) was greater than 100 µM, the TGI (MCF7 breast) was greater than 100 µM and the TGI (NCI-H23 lung) was greater than 100 µM. For the same molecule, the TGI (NCI-H226 lung) was greater than 100 µM, the TGI (SF-268 CNS) was greater than 100 µM and the TGI (MALME-3M melanoma) was greater than 100 µM. It also gave a TGI (SK-MEL-28 melanoma) greater than 100 µM, a TGI (NCI-H460 lung) greater than 100 µM and a TGI (MDA-MB-231 breast) greater than 100 µM. For the same molecule, the TGI (BT-549 breast) was greater than 100 µM, the TGI (DU-145 prostate) was greater than 100 µM and the TGI (HS 578T breast) was greater than 100 µM. For the same molecule, the TGI (HT29 colon) was greater than 100 µM, the TGI (HOP-92 NSCLC) was greater than 100 µM and the TGI (M14 melanoma) was greater than 100 µM. It also gave a TGI (HOP-62 NSCLC) greater than 100 µM, a TGI (TK-10 renal) greater than 100 µM and a TGI (OVCAR-5 ovarian) greater than 100 µM. It also gave a TGI (OVCAR-3 ovarian) greater than 100 µM, a TGI (EKVX NSCLC) greater than 100 µM and a TGI (KM12 colon) greater than 100 µM. The TGI (T-47D breast) was greater than 100 µM.
